Legend:
Staphylococcus aureus = experiment: Antimicrobial screening by agar dilution, Staphylococcus aureus; format: cell-based; settings: after 10, 20, 40 and 60 minutes at all dilutions 1:100, 1:200, 1:400, 1:800
Protocol: (§1) The antibacterial properties of the synthesized compound 2-(2-ethoxyethoxy)-6-phenyl-4,4′-bipyridine-3-carbonitrile were studied by the method of agar dilution. Test solutions of each compound was prepared in concentration of 1% using dimethylformamide as a solvent then they are diluted in physiological solution to obtain the final experimental dilutions 1:100, 1:200, 1:400, 1:800. The effect of these substances are compared with furacillin in a controllable study. The testing microbes used were gram positive bacteria Staphylococcus aureus, gram negative bacteria Pseudomonas aeruginosa and Escherichia coli and Candida albicans fungus. The experiments used for this survey were meat-pentonlu agar (EPA) for cultivation of bacteria and Saburo environment for the fungus. Each experiment used 1 mL of test solution on each plate […]. Two drops of emulsified with microbes feel were added. All experimental samples were taken from the agar after 10, 20, 40, 60 minutes in the environment on the basis of Patrk planted. The bacteria were cultivated at a temperature of 37° C. for 1 day and the mushroom was kept in a thermostat for […] at a temperature of 28° C. Then results were checked.

Escherichia coli = experiment: Antimicrobial screening by agar dilution, Escherichia coli; format: cell-based; settings: after 10, 20, 40 and 60 minutes at all dilutions 1:100, 1:200, 1:400, 1:800
Protocol: as §1

Pseudomonas aeruginosa = experiment: Antimicrobial screening by agar dilution, Pseudomonas aeruginosa; format: cell-based; settings: after 10, 20, 40 and 60 minutes at all dilutions 1:100, 1:200, 1:400, 1:800
Protocol: as §1

Candida albicans = experiment: Antimicrobial screening by agar dilution, Candida albicans; format: cell-based; settings: after 10, 20, 40 and 60 minutes at all dilutions 1:100, 1:200, 1:400, 1:800
Protocol: as §1

melting point: 241 to 243 °C
Compound: CCOCCOc1nc(-c2ccccc2)cc(-c2ccncc2)c1C#N [2-(2-ethoxyethoxy)-6-phenyl-4,4′-bipyridine-3-carbonitrile]
inhibition activity (in words) (Staphylococcus aureus): highest inhibition activity
inhibition activity (in words) (Escherichia coli): highest inhibition activity
inhibition activity (in words) (Pseudomonas aeruginosa): highest inhibition activity
inhibition activity (in words) (Candida albicans): highest inhibition activity

From US11926611B1, “2-(2-ethoxyethoxy)-6-phenyl-4,4′-bipyridine-3-carbonitrile as an antimicrobial compound” (KING FAISAL UNIVERSITY, priority 2023, dated 2024)
